Entries after “also recorded” stand apart in the source; their conditions may differ.
Experiments:
tumor xenograft = test: Tumor xenograft study, tumor growth; assay type: in vivo, athymic nude mouse; conditions: i.p. 50 mg/kg, 5× per week over 28 days
Experimental: Finally, a major goal of this drug design approach was to improve the in vivo physicochemical properties of TOP2A inhibitors compared to the natural product neo. Therefore, an in vivo study was conducted using the athymic nude mouse tumor xenograft model to determine if one of these drug leads could accumulate in tumors when administered via intraperitoneal injection (i.p.). […] Thus, compound 42 was administered i.p. at 50 mg/kg, 5× per week over 28 days.

[1] = Water solubility (stated); assay type: physicochemical
hTopoIIα (TOP2A) = target: T1, hTopoIIα (TOP2A) (Homo sapiens, UniProt P11388); test: TOP2A ATPase / DNA relaxation assay, Michaelis-Menten mode of inhibition (malachite green); assay type: biochemical; conditions: Vmax unchanged, KM shifted
T1 construct: purchased Topogen, CO
T1 sequence (P11388 whole entry): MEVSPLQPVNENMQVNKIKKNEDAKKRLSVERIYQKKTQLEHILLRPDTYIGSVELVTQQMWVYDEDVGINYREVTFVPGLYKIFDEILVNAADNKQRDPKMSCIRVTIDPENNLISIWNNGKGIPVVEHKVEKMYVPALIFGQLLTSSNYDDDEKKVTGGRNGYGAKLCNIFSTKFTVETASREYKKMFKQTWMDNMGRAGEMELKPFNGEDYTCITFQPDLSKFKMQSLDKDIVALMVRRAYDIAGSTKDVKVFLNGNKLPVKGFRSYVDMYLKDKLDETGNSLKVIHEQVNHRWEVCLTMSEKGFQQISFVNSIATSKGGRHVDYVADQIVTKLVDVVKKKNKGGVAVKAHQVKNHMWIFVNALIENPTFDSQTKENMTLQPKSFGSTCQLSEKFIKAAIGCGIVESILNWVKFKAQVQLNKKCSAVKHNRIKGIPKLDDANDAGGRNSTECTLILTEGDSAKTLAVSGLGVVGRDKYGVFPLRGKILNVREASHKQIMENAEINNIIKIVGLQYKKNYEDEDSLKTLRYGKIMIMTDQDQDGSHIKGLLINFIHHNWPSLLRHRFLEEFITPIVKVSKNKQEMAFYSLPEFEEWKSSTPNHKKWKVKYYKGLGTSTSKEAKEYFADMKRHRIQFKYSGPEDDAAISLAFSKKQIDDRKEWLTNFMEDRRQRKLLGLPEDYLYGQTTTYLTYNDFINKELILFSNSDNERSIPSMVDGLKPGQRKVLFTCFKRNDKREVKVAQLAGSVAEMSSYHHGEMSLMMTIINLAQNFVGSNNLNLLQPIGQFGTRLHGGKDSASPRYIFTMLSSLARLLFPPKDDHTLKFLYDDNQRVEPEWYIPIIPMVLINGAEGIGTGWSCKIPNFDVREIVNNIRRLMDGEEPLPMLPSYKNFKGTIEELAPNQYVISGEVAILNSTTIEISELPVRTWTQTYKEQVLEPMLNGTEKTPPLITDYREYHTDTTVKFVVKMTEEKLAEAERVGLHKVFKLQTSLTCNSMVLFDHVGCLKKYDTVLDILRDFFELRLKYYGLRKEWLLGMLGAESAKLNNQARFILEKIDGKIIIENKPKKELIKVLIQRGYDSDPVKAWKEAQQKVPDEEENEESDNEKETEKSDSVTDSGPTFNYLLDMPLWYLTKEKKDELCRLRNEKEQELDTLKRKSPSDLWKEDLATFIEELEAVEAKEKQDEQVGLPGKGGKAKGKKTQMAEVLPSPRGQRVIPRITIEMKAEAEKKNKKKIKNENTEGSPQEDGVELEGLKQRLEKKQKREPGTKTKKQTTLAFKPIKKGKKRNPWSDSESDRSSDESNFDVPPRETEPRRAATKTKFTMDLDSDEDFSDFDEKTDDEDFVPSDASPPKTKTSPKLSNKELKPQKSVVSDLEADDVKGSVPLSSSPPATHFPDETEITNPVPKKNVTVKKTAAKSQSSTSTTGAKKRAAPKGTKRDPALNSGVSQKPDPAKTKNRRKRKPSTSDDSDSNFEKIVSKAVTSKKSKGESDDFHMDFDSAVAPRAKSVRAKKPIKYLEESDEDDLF
Experimental: TOP2A inhibition (Michaelis-Menten). TOP2A Mode of Inhibition was tested with a relaxation assay and the inorganic phosphate (pi) generated was measured with phosphate reagent (Abcam) in black polystyrene 384-well assay plates (Thermo Fisher Scientific). ATP-dependent DNA relaxation assays in 15 μl contained 2 U hTopolla (Topogen), 85 μg/mil (10 nM) supercoiled plasmid (a gift from AstraZeneca), and various concentrations of ATP (between […]) and analog 3 and 7 (between 0 and 20 μM) in 50 mM Tris-HCl (pH 7.5), 150 mM KCl, 5% (v/v) glycerol, 10 mM MgCl2, 1 mM dithiothreitol, 0.002% (w/v) Brij-35, and 200 nM bovine serum albumin (BSA). […] An addition of 70 μL of ddH2O and 15 μL of phosphate reagent were added to each well and the plates were incubated in dark at room temp for 30 min before OD600 was read with a BioTek plate reader. […]
TOP2A ATPase Assay. The mode of inhibition of TOP2A analogs were tested with a DNA relaxation assay and the inorganic phosphate (pi) generated was measured with malachite green phosphate reagent (Abcam, MA) in black polystyrene 384-well assay plates (Thermo Fisher Scientific, MA). […] An addition of 70 μL of ddH2O and 15 μL of phosphate reagent were added to each well and the plates were incubated in dark at room temp for 30 min before OD600 was read with a BioTek plate reader. […]

Row | Compound | tumor growth (tumor xenograft) | water solubility, in words [1] | mode of TOP2A inhibition (Michaelis-Menten kinetics of ATP hydrolysis) (hTopoIIα (TOP2A))
1 | O=C(CCN1CCOCC1)Nc1ccc2c(-c3cc(F)ccc3O)ccnc2c1O [Analog 42] | no loss of any tumor growth was observed | water soluble; also recorded: significantly improved water solubility | –
2 | CC(=O)Nc1ccc2c(-c3cc(F)ccc3O)ccnc2c1O [Analog 7] | – | – | ATP-competitive mode of inhibition
3 | Cn1ccc2c(c1=O)C(=O)c1nccc3c1C2NC1=CCC=CC13 (stereo not shown) [neo, neoamphimedine, reference compound] | – | – | ATP-competitive mode of inhibition
